Patent US12180214B2, “Crystalline forms of (s)-4-amino-6-((1-(3-chloro-6-phenylimidazo[1,2-b]pyridazine-7-yl)ethyl)amino)pyrimidine-5-carbonitrile as inhibitors of phosphatidylinositol-3-kinase” (HUTCHISON MEDIPHARMA LIMITED, priority 2018, dated 2024)
Converted amounts (≈) assume the structure as drawn.

How the values were obtained:
Format in all cases: physicochemical
[1] = Hygroscopicity by dynamic vapor sorption (DVS); details: relative humidity of 0-95% at 25° C.
Protocol: Determination method: the test samples of Form I, Form IV, and Form V of compound of Formula A were placed in the sample dishes of the dynamic vapor sorption instrument (DVS-INTRINSIC) respectively. Then the weight gains by moisture absorption of the samples were measured at a relative humidity of 0-95% at 25° C. The results were shown in FIG. 16, FIG. 17, and FIG. 18.

[2] = Stability of Form I, Form IV, and Form V under high temperature, high humidity and illumination conditions; details: for Stability (chemical purity and crystalline form), conclusion: high temperature, high humidity, and illumination conditions for 10 days
Protocol: Determination method: the test samples of Form I, Form IV, and Form V of compound of Formula A were placed on the culture dishes respectively, which were uncovered and placed in sealed clean containers. The containers were placed under the conditions of a temperature of 60° C., a temperature of 25° C. and a relative humidity of 92.5%±5%, and an illumination of 4500 lx±500 lx respectively for 10 days. Then sampled, investigated for the purity and crystalline form of the samples, and compared the investigation results.

[3] = Solubility of Form I, Form IV, and Form V in buffers of different pH; details: for Solubility in the test buffers, conclusion: buffers pH 1.2-6.8, 37° C.; for solubility at 2 hours / solubility at 0.5 hour: buffer, 37 °C, thermodynamic from solid
Protocol: Determination method: excess amount of samples of Form I, Form IV, and Form V of compound of Formula A were suspended in the buffers of different pH respectively. The system was saturated by shaking for a period of time at 37° C. in a water bath of constant temperature. Then the system was filtered, and the filtrate was used for determining solubility of the samples. The buffers of different pH were prepared according to the US pharmacopeia (USP40-NF35).

[4] = Stability of Form IV mixed with excipients (starch, microcrystalline cellulose); details: high temperature, high humidity, and illumination conditions, 30 days
Protocol: Determination method: 50 mg of samples of Form IV of compound of Formula A were mixed with 200 mg of excipients starch and microcrystalline cellulose respectively. The mixtures were used as Lest samples and placed on the culture dishes respectively, which were uncovered and placed in sealed clean containers. Then the containers were placed under the conditions of a temperature of 60° C., a temperature of 25° C. and a relative humidity of 92.5%±5%, and an illumination of 4500 lx±500 lx respectively for 30 days. Then sampled, investigated for the change of crystalline form of the samples, and compared the investigation results.

[5] = High humidity (92.5% RH), 25° C., 5 days
[6] = High humidity (92.5% RH), 25° C., 10 days
[7] = High temperature (60° C.), 5 days
[8] = High temperature (60° C.), 10 days
[9] = Illumination (4500 Lx), 10 days

| SMILES | Hygroscopicity (weight gain by moisture absorption) [1] | Chemical purity (%) ([2]; 0 day) | Chemical purity (%) [2, 5] [%] | Chemical purity (%) [2, 6] [%] | Chemical purity (%) [2, 7] [%] | Chemical purity (%) [2, 8] [%] | Chemical purity (%) ([2]; Illumination (4500 Lx), 5 days) | Chemical purity (%) [2, 9] [%] | Stability (chemical purity and crystalline form), conclusion [2] | Solubility in the test buffers, conclusion [3] | further results |
| --- | --- | --- | --- | --- | --- | --- | --- | --- | --- | --- | --- |
| C[C@H](Nc1ncnc(N)c1C#N)c1cc2ncc(Cl)n2nc1-c1ccccc1 [Form V, (S)-4-amino-6-((1-(3-chloro-6-phenylimidazo[1,2-b]pyridazin-7-yl)ethyl)amino)pyrimidine-5-carbonitrile] | non-hygroscopic | 99.70 | 99.88 | 99.87 | 99.88 | 99.87 | 99.85 | 99.81 | stable | good solubility | Solubility ([3]; buffer pH 1.2, shaken at 37° C. water bath for 2 hours): 9640 µg/mL (≈ 24700 µM); Solubility ([3]; buffer pH 2.1, shaken at 37° C. water bath for 2 hours): 580 µg/mL (≈ 1480 µM); Solubility ([3]; buffer pH 4.5, shaken at 37° C. water bath for 2 hours): 20 µg/mL (≈ 51.2 µM); Solubility ([3]; buffer pH 6.8, shaken at 37° C. water bath for 2 hours): 20 µg/mL (≈ 51.2 µM) |
| C[C@H](Nc1ncnc(N)c1C#N)c1cc2ncc(Cl)n2nc1-c1ccccc1 [Form IV, (S)-4-amino-6-((1-(3-chloro-6-phenylimidazo[1,2-b]pyridazin-7-yl)ethyl)amino)pyrimidine-5-carbonitrile] | non-hygroscopic | 99.27 | 99.68 | 99.68 | 99.57 | 99.68 | 99.59 | 99.55 | stable | good solubility | Stability mixed with excipients, conclusion [4]: stable; solubility at 2 hours ([3]; pH 1.2, simulated gastric fluid, buffer pH 1.2, shaken at 37° C. water bath for 2 hours): 8560 µg/mL (≈ 21900 µM); solubility at 2 hours ([3]; pH 2.1, aqueous buffer, buffer pH 2.1, shaken at 37° C. water bath for 2 hours): 500 µg/mL (≈ 1280 µM); solubility at 2 hours ([3]; pH 4.5, aqueous buffer, buffer pH 4.5, shaken at 37° C. water bath for 2 hours): 20 µg/mL (≈ 51.2 µM); solubility at 2 hours ([3]; pH 6.8, aqueous buffer, buffer pH 6.8, shaken at 37° C. water bath for 2 hours): 20 µg/mL (≈ 51.2 µM) |
| C[C@H](Nc1ncnc(N)c1C#N)c1cc2ncc(Cl)n2nc1-c1ccccc1 [Form I, (S)-4-amino-6-((1-(3-chloro-6-phenylimidazo[1,2-b]pyridazin-7-yl)ethyl)amino)pyrimidine-5-carbonitrile] | non-hygroscopic | 99.76 | 99.65 | 99.60 | 99.63 | 99.63 | 99.61 | 99.45 | stable | good solubility | solubility at 0.5 hour ([3]; pH 1.2, simulated gastric fluid, buffer pH 1.2, shaken at 37° C. water bath for 0.5 hour): 10800 µg/mL (≈ 27600 µM); solubility at 0.5 hour ([3]; pH 2.1, aqueous buffer, buffer pH 2.1, shaken at 37° C. water bath for 0.5 hour): 800 µg/mL (≈ 2050 µM); solubility at 0.5 hour ([3]; pH 4.5, aqueous buffer, buffer pH 4.5, shaken at 37° C. water bath for 0.5 hour): 40 µg/mL (≈ 102 µM); solubility at 0.5 hour ([3]; pH 6.8, aqueous buffer, buffer pH 6.8, shaken at 37° C. water bath for 0.5 hour): 30 µg/mL (≈ 76.8 µM) |
